Experimental data from US9604989B2, “Imidazopyridazines as Akt kinase inhibitors” (Bayer Intellectual Property GmbH, priority 2011, dated 2017).
Where a name gives a salt, the structure may show the parent alone.

Tests used:
[1] = target: His-tagged human recombinant kinase full-length Akt2 (Homo sapiens (Human), UniProt P31751); test: Akt2 kinase assay (Akt2 TR-FRET assay); format: biochemical; settings: 10 μM ATP, 60 min at 22° C., read-out: Akt2 median IC50
phospho-AKT at S473 = test: Cellular p-AKT1/2/3-S473 assay in KPL-4 cells; format: cell-based; settings: Homo sapiens, KPL4; KPL-4 breast tumour cell line, compound treatment 2 hours; read-out: pAKT-S473 median IC50
Description: The molecular mechanism of action was investigated in a set of experiments to assess the inhibition of the PI3K-AKT-mTOR pathway in responsive cell lines such as KPL-4 breast tumour cell line (PIK3CA^H1047R, HER2^O/E and hormone independent). The phospho-substrates of PI3K-AKT-mTOR axis were used as the read-outs to reflect pathway inhibition. Cells were seeded at 60-80% confluency per well in 96-well cell culture plates. After overnight incubation at 37° C. 5% CO2, cells were treated with compounds and vehicle at 37° C. for 2 hours. […] All measurements where at least done in duplicates and confirmed by independent repetition.
Alternatively pAKT-S473 was measured using the “Akt Duplex” of the MULTI-SPOT® Assay System (Fa. Meso Scale Discovery, Cat#N41100B-1) following manufacturers instructions. Each assay used 20 μg of protein extract and measured total AKT and p-AKT content simultaneously in one well. All measurements where at least done in duplicates and confirmed by independent repetition. Values for P-AKT are expressed as percentage of P-AKT level compared to total-AKT content of the extracts.

p-4E-BP1 at T70 = test: Cellular p-4E-BP1-T70 assay in KPL-4 cells; format: cell-based; settings: Homo sapiens, KPL4; KPL-4 breast tumour cell line, compound treatment 2 hours; read-out: P4EBP1-T70 median IC50
[2] = test system: KPL-4 breast cancer cell line; test: Tumor cell proliferation assay (CellTiter-Glo), KPL-4; format: cell-based; settings: Homo sapiens, KPL4, 72 h drug exposure, read-out: KLP-4 median IC50
Description: (§1) Biological Assay 4.0: Tumor Cell Proliferation Assays
(§2) Compounds were tested in a cell-based assay that measures the capacity of the compounds to inhibit tumour cell proliferation following a 72 h drug exposure. Cell viability is determined using CellTiter-Glow® (CTG, Promega, cat#G7571/2/3). The CellTiter-Glo® Luminescent Cell Viability Assay is a homogeneous method to determine the number of viable cells in culture.
(§3) Detection is based on using the luciferase reaction to measure the amount of ATP from viable cells. The amount of ATP in cells correlates with cell viability. Within minutes after a loss of membrane integrity, cells lose the ability to synthesize ATP, and endogenous ATPases destroy any remaining ATP; thus the levels of ATP fall precipitously.
(§4) For each cell line assayed, cells were plated onto a separate plate for determination of fluorescence at t=0 hour and t=72 hour time points. Following overnight incubation at 37° C., chemiluminescence values for the t=0 samples were determined after adding 10 μl medium and 100 μl CTG solution according to manufacture protocol. Plates for the t=72 hour time points were treated with compounds diluted into growth medium at ten times final concentration added in 10 μL to the cell culture plate. Cells were then incubated for 72 hours at 37° C. Chemiluminescence values for the t=72 hour samples were determined. […] Experiments were controlled using a reference compound as standard.

[3] = test system: MCF-7 breast tumour cell line; test: Tumor cell proliferation assay (CellTiter-Glo), MCF-7; format: cell-based; settings: Homo sapiens, MCF7, 72 h drug exposure, read-out: MCF-7 median IC50
Description: as §1, §2, §3, §4

[4] = target: His-tagged human recombinant kinase full-length Akt1 (Homo sapiens (Human), UniProt P31749); test: Akt1 kinase assay (Akt1 TR-FRET assay); format: biochemical; settings: 10 μM ATP, 60 min at 22° C., read-out: Akt1 median IC50
His-tagged human recombinant kinase full-length Akt1, sequence (P31749 whole entry): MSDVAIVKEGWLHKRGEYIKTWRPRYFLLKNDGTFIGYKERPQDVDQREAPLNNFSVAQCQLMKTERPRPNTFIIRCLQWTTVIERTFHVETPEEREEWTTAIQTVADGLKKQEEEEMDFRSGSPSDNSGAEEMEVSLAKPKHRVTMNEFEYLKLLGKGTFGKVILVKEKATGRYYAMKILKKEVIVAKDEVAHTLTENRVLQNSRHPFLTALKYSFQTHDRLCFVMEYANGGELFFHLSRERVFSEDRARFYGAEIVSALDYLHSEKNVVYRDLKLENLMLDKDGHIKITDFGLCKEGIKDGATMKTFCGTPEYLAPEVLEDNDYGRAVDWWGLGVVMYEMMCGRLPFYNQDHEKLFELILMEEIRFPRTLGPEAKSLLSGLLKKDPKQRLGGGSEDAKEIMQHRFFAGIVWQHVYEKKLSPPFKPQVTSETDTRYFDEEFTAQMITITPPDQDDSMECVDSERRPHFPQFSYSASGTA
Excerpt: Biological Assay 1.0: Akt1 Kinase Assay
Akt1 inhibitory activity of compounds of the present invention was quantified employing the Akt1 TR-FRET assay as described in the following paragraphs.
His-tagged human recombinant kinase full-length Akt1 expressed in insect cells was purchased form Invitrogen (part number PV 3599). As substrate for the kinase reaction the biotinylated peptide biotin-Ahx-[sequence] (C-terminus in amide form) was used which can be purchased e.g. from the company Biosynthan GmbH (Berlin-Buch, Germany).
For the assay 50 nl of a 100 fold concentrated solution of the test compound in DMSO was pipetted into a black low volume 384 well microtiter plate (Greiner Bio-One, Frickenhausen, Germany), 2 μl of a solution of Akt1 in assay buffer [50 mM TRIS/HCl pH 7.5, 5 mM MgCl2, 1 mM dithiothreitol, 0.02% (v/v) Triton X-100 (Sigma)] were added and the mixture was incubated for 15 min at 22° C. to allow pre-binding of the test compounds to the enzyme before the start of the kinase reaction. Then the kinase reaction was started by the addition of 3 μl of a solution of adenosine-tri-phosphate (ATP, 16.7 μM=>final conc. in the 5 μl assay volume is 10 μM) and substrate (1.67 μM=>final conc. in the 5 μl assay volume is 1 μM) in assay buffer and the resulting mixture was incubated for a reaction time of 60 min at 22° C. The concentration of Akt1 in the assay was adjusted depending of the activity of the enzyme lot and was chosen appropriate to have the assay in the linear range, typical enzyme concentrations were in the range of about 0.05 ng/μl (final conc. in the 5 μl assay volume). The reaction was stopped by the addition of 5 μl of a solution of HTRF detection reagents (200 nM streptavidine-XL665 [Cisbio] and 1.5 nM anti-phosho-Serine antibody [Millipore, cat. #35-001] and 0.75 nM LANCE Eu-W 1024 labeled anti-mouse IgG antibody [Perkin Elmer]) in an aqueous EDTA-solution (100 mM EDTA, 0.1% (w/v) bovine serum albumin in 50 mM HEPES/NaOH pH 7.5). The resulting mixture was incubated 1 h at 22° C. to allow the binding of the biotinylated phosphorylated peptide to the streptavidine-XL665 and the antibodies. Subsequently the amount of phosphorylated substrate was evaluated by measurement of the resonance energy transfer from the anti-mouse-IgG-Eu-Chelate to the streptavidine-XL665. Therefore, the fluorescence emissions at 620 nm and 665 nm after excitation at 350 nm was measured in a HTRF reader, e.g. a Rubystar (BMG Labtechnologies, Offenburg, Germany) or a Viewlux (Perkin-Elmer). The ratio of the emissions at 665 nm and at 622 nm was taken as the measure for the amount of phosphorylated substrate.

His-tagged human recombinant kinase full-length Akt2, sequence (P31751 whole entry): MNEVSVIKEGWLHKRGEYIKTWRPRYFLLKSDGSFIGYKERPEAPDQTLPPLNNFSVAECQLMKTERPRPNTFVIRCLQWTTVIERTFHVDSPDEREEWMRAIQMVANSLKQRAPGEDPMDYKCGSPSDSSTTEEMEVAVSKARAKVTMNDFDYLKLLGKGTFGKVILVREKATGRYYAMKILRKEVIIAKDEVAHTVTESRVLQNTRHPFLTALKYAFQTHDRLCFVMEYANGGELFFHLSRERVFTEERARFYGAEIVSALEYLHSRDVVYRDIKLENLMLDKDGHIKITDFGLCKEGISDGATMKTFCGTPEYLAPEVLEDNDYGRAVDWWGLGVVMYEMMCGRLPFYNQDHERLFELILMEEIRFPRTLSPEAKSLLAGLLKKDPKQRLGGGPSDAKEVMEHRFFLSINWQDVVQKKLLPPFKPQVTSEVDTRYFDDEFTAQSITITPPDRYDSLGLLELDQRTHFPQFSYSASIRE

Row | SMILES | IC50 [1] | IC50 (phospho-AKT at S473) | IC50 (p-4E-BP1 at T70) | IC50 [2] | IC50 [3] | IC50 [4]
1 | COC(=O)c1cc(OC)c2nc(-c3ccc(C4(N)CCC4)cc3)c(-c3ccccc3)n2n1 [Example 12, Methyl 2-[4-(1-aminocyclobutyl)phenyl]-8-methoxy-3-phenylimidazo[1,2-b]pyridazine-6-carboxylate] | – | 52 nM | 260 nM | 2000 nM | 1800 nM | 21 nM
2 | CCCc1ccnn2c(-c3ccccc3)c(-c3ccc(C4(N)CCC4)cc3)nc12 [Example 47, 1-[4-(3-Phenyl-8-propylimidazo[1,2-b]pyridazin-2-yl)phenyl]cyclobutanamine] | – | 140 nM | 96 nM | 1700 nM | 1100 nM | 220 nM
3 | CCOc1nn2c(-c3ccccc3)c(-c3ccc(C4(N)CCC4)cc3)nc2c(C)c1C [Example 55, 1-[4-(6-Ethoxy-7,8-dimethyl-3-phenylimidazo[1,2-b]pyridazin-2-yl)phenyl]-cyclobutanamine] | – | 680 nM | 1800 nM | 2000 nM | 1900 nM | –
4 | COC(=O)c1ccnn2c(-c3ccccc3)c(-c3ccc(C4(N)CCC4)cc3)nc12 [Example 31, Methyl 2-[4-(1-aminocyclobutyl)phenyl]-3-phenylimidazo[1,2-b]pyridazine-8-carboxylate] | 140 nM | 1800 nM | 4300 nM | 8400 nM | 1400 nM | –
5 | NC1(c2ccc(-c3nc4c(C5CC5)cc(Cl)nn4c3-c3ccccc3)cc2)CCC1 [Example 46, 1-[4-(6-Chloro-8-cyclopropyl-3-phenylimidazo [1,2-b]pyridazin-2-yl)phenyl]cyclobutanamine] | 85 nM | 430 nM | 300 nM | 1900 nM | 1500 nM | –
6 | COc1cc(-c2ccnn2C)c2nc(-c3ccc(C4(N)CCC4)cc3)c(-c3ccccc3)n2n1 [Example 74, 1-{4-[6-Methoxy-8-(1-methyl-1H-pyrazol-5-yl)-3-phenylimidazo[1,2-b]pyridazin-2-yl]phenyl}cyclobutanamine] | – | 450 nM | – | 2100 nM | 2000 nM | 96 nM
7 | Nc1ccc2nc(-c3ccc(C4(N)CCC4)cc3)c(-c3ccccc3)n2n1 [Example 35, 2-[4-(1-Aminocyclobutyl)phenyl]-3-phenylimidazo[1,2-b]pyridazin-6-amine] | 1200 nM | 190 nM | 1700 nM | 6100 nM | 3000 nM | –
8 | CN(C)C(=O)c1ccc2nc(-c3ccc(C4(N)CCC4)cc3)c(-c3ccccc3)n2n1 [Example 69, 2-[4-(1-Aminocyclobutyl)phenyl]-N,N-dimethyl-3-phenylimidazo[1,2-b]pyridazine-6-carboxamide] | – | 250 nM | 4400 nM | 10000 nM | 1500 nM | 310 nM
9 | CCc1cc(OC)c2nc(-c3ccc(C4(N)CCC4)cc3)c(-c3ccccc3)n2n1 [Example 13, 1-[4-(6-Ethyl-8-methoxy-3-phenylimidazo[1,2-b]pyridazin-2-yl)phenyl]cyclobutanamine] | 42 nM | – | 660 nM | 1500 nM | 1100 nM | –
10 | NC1(c2ccc(-c3nc4ccc(NC(=O)C(F)(F)F)nn4c3-c3ccccc3)cc2)CCC1 [Example 40, N-{2-[4-(1-Aminocyclobutyl)phenyl]-3-phenylimidazo[1,2-b]pyridazin-6-yl}-2,2,2-trifluoroacetamide] | – | 2000 nM | 6100 nM | > 10000 nM | 8400 nM | –
11 | NC1(c2ccc(-c3nc4ccc(C(F)(F)F)nn4c3-c3ccccc3)cc2)CCC1 [Example 3, 1-{4-[3-Phenyl-6-(trifluoromethyl)imidazo[1,2-b]pyridazin-2-yl]phenyl}-cyclobutanamine] | – | 360 nM | 4500 nM | 1700 nM | 1800 nM | –
12 | NC1(c2ccc(-c3nc4c(-c5ncc[nH]5)cc(Cl)nn4c3-c3ccccc3)cc2)CCC1 [Example 24, 1-{4-[6-Chloro-8-(1H-imidazol-2-yl)-3-phenyl-imidazo[1,2-b]pyridazin-2-yl]phenyl} cyclobutanamine] | – | 200 nM | 500 nM | 1700 nM | 1800 nM | 35 nM
13 | NC1(c2ccc(-c3nc4ccc(-c5ccc(F)cc5)nn4c3-c3ccccc3)cc2)CCC1 [Example 33, 1-{4-[6-(4-Fluorophenyl)-3-phenylimidazo[1,2-b]pyridazin-2-yl]phenyl}cyclobutanamine] | – | 2900 nM | – | – | – | 690 nM
14 | COc1cc(-c2cn[nH]c2)c2nc(-c3ccc(C4(N)CCC4)cc3)c(-c3ccccc3)n2n1 [Example 15, 1-{4-[6-Methoxy-3-phenyl-8-(1H-pyrazol-4-yl)imidazo[1,2-b]pyridazin-2-yl]phenyl} cyclobutanamine HCl salt] | – | 590 nM | 1700 nM | 1800 nM | 1800 nM | 4.4 nM
15 | NC1(c2ccc(-c3nc4c(-c5ccc(F)cc5)ccnn4c3-c3ccccc3)cc2)CCC1 [Example 44, 1-{4-[8-(4-Fluorophenyl)-3-phenylimidazo[1,2-b]pyridazin-2-yl]phenyl}cyclobutanamine] | 310 nM | 800 nM | 380 nM | 2000 nM | – | –
16 | CC(=O)c1ccc2nc(-c3ccc(C4(N)CCC4)cc3)c(-c3ccccc3)n2n1 [Example 43, 1-{2-[4-(1-Aminocyclobutyl)phenyl]-3-phenylimidazo[1,2-b]pyridazin-6-yl}ethanone] | – | 96 nM | 1600 nM | 6200 nM | 6700 nM | 36 nM
17 | NC1(c2ccc(-c3nc4c(O)ccnn4c3-c3ccccc3)cc2)CCC1 [Example 32, 2-[4-(1-Aminocyclobutyl)phenyl]-3-phenylimidazo[1,2-b]pyridazin-8-ol] | – | 160 nM | 2200 nM | – | – | –

Second part, the compound after the results:

Row | IC50 [1] | IC50 (phospho-AKT at S473) | IC50 (p-4E-BP1 at T70) | IC50 [2] | IC50 [3] | IC50 [4] | SMILES
18 | 110 nM | 5.7 nM | 2400 nM | 2600 nM | 940 nM | – | NC1(c2ccc(-c3nc4ccc(C(=O)NCCO)nn4c3-c3ccccc3)cc2)CCC1 [Example 70, 2-[4-(1-Aminocyclobutyl)phenyl]-N-(2-hydroxyethyl)-3-phenylimidazo[1,2-b]pyridazine-6-carboxamide]
19 | – | 1 nM | 6.2 nM | 1900 nM | 1800 nM | – | COCCOc1cc(C(N)=O)nn2c(-c3ccccc3)c(-c3ccc(C4(N)CCC4)cc3)nc12 [Example 28, 2-[4-(1-Aminocyclobutyl)phenyl]-8-(2-methoxy-ethoxy)-3-phenylimidazo[1,2-b]pyridazine-6-carboxamide]
20 | 12 nM | 0.9 nM | 84 nM | 360 nM | 150 nM | – | CNC(=O)c1cc(OCC2CC2)c2nc(-c3ccc(C4(N)CCC4)cc3)c(-c3ccccc3)n2n1 [Example 64, 2-[4-(1-Aminocyclobutyl)phenyl]-8-(cyclopropylmethoxy)-N-methyl-3-phenylimidazo[1,2-b]pyridazine-6-carboxamide]
21 | 10 nM | 0.9 nM | 90 nM | 1800 nM | 1800 nM | – | CNC(=O)c1cc(OC)c2nc(-c3ccc(C4(N)CCC4)cc3)c(-c3ccccc3)n2n1 [Example 26, 2-[4-(1-Aminocyclobutyl)phenyl]-8-methoxy-N-methyl-3-phenylimidazo[1,2-b]pyridazine-6-carboxamide]
22 | – | 0.3 nM | 23 nM | 190 nM | 240 nM | 8 nM | CCOc1cc(C(=O)NC)nn2c(-c3ccccc3)c(-c3ccc(C4(N)CCC4)cc3)nc12 [Example 22, 2-[4-(1-Aminocyclobutyl)phenyl]-8-ethoxy-N-methyl-3-phenylimidazo[1,2-b]pyridazine-6-carboxamide]
23 | 14 nM | 3.1 nM | 150 nM | 1100 nM | 330 nM | – | NC(=O)c1cc(C(N)=O)c2nc(-c3ccc(C4(N)CCC4)cc3)c(-c3ccccc3)n2n1 [Example 34, 2-[4-(1-Aminocyclobutyl)phenyl]-3-phenylimidazo[1,2-b]pyridazine-6,8-dicarboxamide]
24 | – | 26 nM | 1600 nM | 1800 nM | 1700 nM | 17 nM | CSc1ccc2nc(-c3ccc(C4(N)CCC4)cc3)c(-c3ccccc3)n2n1 [Example 36, 1-{4-[6-(Methylsulfanyl)-3-phenylimidazo[1,2-b]pyridazin-2-yl]phenyl}cyclobutanamine]
25 | – | 20 nM | 530 nM | 740 nM | 510 nM | 370 nM | CS(=O)(=O)c1ccc2nc(-c3ccc(C4(N)CCC4)cc3)c(-c3ccccc3)n2n1 [Example 38]
26 | – | 1 nM | 8100 nM | 1500 nM | 73 nM | 7.2 nM | NC(=O)c1cc(-c2cc[nH]n2)c2nc(-c3ccc(C4(N)CCC4)cc3)c(-c3ccccc3)n2n1 [Example 60, 2-[4-(1-Aminocyclobutyl)phenyl]-3-phenyl-8-(1H-pyrazol-3-yl)imidazo[1,2-b]pyridazine-6-carboxamide]
27 | – | 11 nM | 100 nM | – | – | – | NC(=O)c1ccnn2c(-c3ccccc3)c(-c3ccc(C4(N)CCC4)cc3)nc12 [Example 59]
28 | – | 17 nM | – | 2500 nM | 980 nM | – | CCNC(=O)c1ccc2nc(-c3ccc(C4(N)CCC4)cc3)c(-c3ccccc3)n2n1 [Example 66, 2-[4-(1-Aminocyclobutyl)phenyl]-N-ethyl-3-phenylimidazo[1,2-b]pyridazine-6-carboxamide]
